Test results taken from the supplement of paper PMC11061612.

Legend:
Assay in all cases: Bliss excess, mean over the matrix (fraction); higher = more synergy
[1] = tested on: CCRF-CEM (T-Lymphoblastic Leukemia)
Outline: (§1)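 Cell lines in DMEM/F12 or RPMI with 10% FBS were plated in 1536-well plates, held 24 hours at 37°C, 5% CO2, then given two-drug dose matrices for 72 hours (DMSO typically 0.2%). Viability was read by CellTiter-Glo 2.0 luminescence and scaled as inhibition from 0 (vehicle wells) to 1 (blank wells). Combination Emax is the second-highest inhibition in the matrix; Bliss excess is observed combination effect minus expected EA + EB − EA·EB, EA and EB being single-agent effects.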

[2] = tested on: COLO-205 (Colorectal Carcinoma)
Outline: as §1

[3] = tested on: CaR-1 (Colorectal Carcinoma)
Outline: as §1

[4] = tested on: Daoy (Other Solid Carcinomas)
Outline: as §1

[5] = tested on: EC-GI-10 (Esophageal Squamous Cell Carcinoma)
Outline: as §1

[6] = tested on: HCC-78 (Lung Adenocarcinoma)
Outline: as §1

HOS (Osteosarcoma) = tested on: HOS (Osteosarcoma)
Outline: as §1

[7] = tested on: HT-1376 (Bladder Carcinoma)
Outline: as §1

[8] = tested on: HuP-T4 (Pancreatic Carcinoma)
Outline: as §1

[9] = tested on: KP-1N (Pancreatic Carcinoma)
Outline: as §1

[10] = tested on: LB831-BLC (Bladder Carcinoma)
Outline: as §1

[11] = tested on: LU-135 (Small Cell Lung Carcinoma)
Outline: as §1

NB10 (Neuroblastoma) = tested on: NB10 (Neuroblastoma)
Outline: as §1

[12] = tested on: NCI-H2085 (Non-Small Cell Lung Carcinoma)
Outline: as §1

NOS-1 (Osteosarcoma) = tested on: NOS-1 (Osteosarcoma)
Outline: as §1

[13] = tested on: OVCA420 (Ovarian Carcinoma)
Outline: as §1

[14] = tested on: RC-K8 (B-Cell Non-Hodgkin's Lymphoma)
Outline: as §1

[15] = tested on: SNU-5 (Gastric Carcinoma)
Outline: as §1

T98G (Glioblastoma) = tested on: T98G (Glioblastoma)
Outline: as §1

[16] = tested on: TE-15 (Esophageal Squamous Cell Carcinoma)
Outline: as §1

SMILES | Bliss excess [1] | Bliss excess [2] | Bliss excess [3] | Bliss excess [4] | Bliss excess [5] | Bliss excess [6] | Bliss excess (HOS (Osteosarcoma)) | Bliss excess [7] | Bliss excess [8] | Bliss excess [9] | Bliss excess [10] | Bliss excess [11] | Bliss excess (NB10 (Neuroblastoma)) | Bliss excess [12] | Bliss excess (NOS-1 (Osteosarcoma)) | Bliss excess [13] | Bliss excess [14] | Bliss excess [15] | Bliss excess (T98G (Glioblastoma)) | Bliss excess [16]
Cc1c2c(nn1C)CSCc1cc(n(C)n1)CSc1cc(c3ccccc3c1)OCCCc1c(C(=O)O)n(C)c3c-2c(Cl)ccc13 [AZD5991] + CC1(C)CCC(CN2CCN(c3ccc(C(=O)NS(=O)(=O)c4ccc(NCC5CCOCC5)c([N+](=O)[O-])c4)c(Oc4cnc5[nH]ccc5c4)c3)CC2)=C(c2ccc(Cl)cc2)C1 [Venetoclax] (first compound max 1 µM, 7x7, partner max 1 µM) | 0.0935 | -0.0335 | -0.0225 | 0.0496 | -0.0024 | -0.0245 | 0.0413 | -0.0465 | -0.0106 | -0.0262 | -0.0229 | 0.0178 | 0.0065 | -0.0042 | 0.0241 | -0.0045 | -0.0142 | -0.0127 | 0.0004 | -0.05
Cc1c2c(nn1C)CSCc1cc(n(C)n1)CSc1cc(c3ccccc3c1)OCCCc1c(C(=O)O)n(C)c3c-2c(Cl)ccc13 [AZD5991] + CCN(CCO)CCCOc1ccc2c(Nc3cc(CC(=O)Nc4cccc(F)c4)[nH]n3)ncnc2c1 [AZD2811] (first compound max 1 µM, 7x7, partner max 1 µM) | -0.0343 | 0.0153 | -0.0004 | 0.0678 | 0.156 | 0.0209 | 0.007 | -0.0077 | -0.0024 | -0.0662 | 0.0076 | 0.0109 | 0.0335 | -0.0575 | -0.0222 | -0.0245 | 0.09 | 0.0306 | -0.0339 | 0.0649
Cc1c2c(nn1C)CSCc1cc(n(C)n1)CSc1cc(c3ccccc3c1)OCCCc1c(C(=O)O)n(C)c3c-2c(Cl)ccc13 [AZD5991] + CN(C)CCCOc1ccc(-c2ccc3ncc4c(c3c2)n(C2CCOCC2)c(=O)n4C)cn1 [AZD0156] (first compound max 1 µM, 7x7, partner max 1 µM) | 0.0467 | 0.0261 | -0.0271 | 0.0145 | 0.0487 | -0.0059 | -0.0026 | 0.0039 | 0.0351 | -0.0132 | 0.0072 | -0.0413 | 0.0269 | -0.0266 | -0.0581 | -0.0333 | 0.0237 | 0.0154 | 0.008 | 0.0128
Cc1c2c(nn1C)CSCc1cc(n(C)n1)CSc1cc(c3ccccc3c1)OCCCc1c(C(=O)O)n(C)c3c-2c(Cl)ccc13 [AZD5991] + C[C@@H]1COCCN1C2=NC(=NC(=C2)C3(CC3)[S@](=N)(=O)C)C4=C5C=CNC5=NC=C4 [AZD6738] (first compound max 1 µM, 7x7, partner max 10 µM) | 0.0397 | 0.0116 | -0.0134 | 0.0268 | 0.061 | 0.0028 | 0.0356 | 0.0144 | 0.0361 | 0.0679 | 0.0641 | 0.0274 | 0.0339 | 0.0312 | 0.0854 | 0.0076 | 0.0114 | -0.0075 | -0.0069 | -0.0441
Cc1c2c(nn1C)CSCc1cc(n(C)n1)CSc1cc(c3ccccc3c1)OCCCc1c(C(=O)O)n(C)c3c-2c(Cl)ccc13 [AZD5991] + C[C@@H](Nc1cc(F)cc(F)c1)c1cc(C(=O)N(C)C)cc2c(=O)cc(N3CCOCC3)oc12 [AZD8186] (first compound max 1 µM, 7x7, partner max 3 µM) | 0.0055 | -0.0444 | -0.0187 | 0.0289 | 0.0109 | -0.005 | -0.0169 | -0.0304 | 0.0505 | -0.0533 | 0.0352 | 0.0307 | -0.0444 | -0.043 | 0.023 | -0.0274 | -0.0418 | 0.0155 | -0.001 | -0.0254
Cc1c2c(nn1C)CSCc1cc(n(C)n1)CSc1cc(c3ccccc3c1)OCCCc1c(C(=O)O)n(C)c3c-2c(Cl)ccc13 [AZD5991] + Cc1cc2ncnn2cc1Nc1ncc2c(n1)n(C1CCOCC1)c(=O)n2C [AZD7648] (first compound max 1 µM, 7x7, partner max 10 µM) | 0.0837 | -0.0604 | -0.0365 | -0.0069 | -0.0555 | -0.016 | -0.0036 | -0.0218 | -0.0562 | -0.0518 | -0.034 | -0.0237 | 0.0047 | -0.0493 | 0.0112 | -0.0531 | 0.0148 | 0.0269 | -0.0663 | -0.0325
Cc1c2c(nn1C)CSCc1cc(n(C)n1)CSc1cc(c3ccccc3c1)OCCCc1c(C(=O)O)n(C)c3c-2c(Cl)ccc13 [AZD5991] + Cn1cnc2c(F)c(Nc3ccc(Br)cc3Cl)c(C(=O)NOCCO)cc21 [Selumetinib] (first compound max 1 µM, 7x7, partner max 3 µM) | 0.0383 | 0.0145 | -0.03 | 0.02 | 0.051 | -0.0245 | -0.0261 | 0.0144 | 0.113 | -0.029 | -0.018 | -0.0003 | 0.0122 | -0.0344 | 0.0887 | 0.0316 | 0.0127 | 0.0262 | 0.0157 | 0.0114
NC1(C(=O)N[C@@H](CCO)c2ccc(Cl)cc2)CCN(c2ncnc3[nH]ccc23)CC1 [Capivasertib] + CC(=O)c1c(C)c2cnc(Nc3ccc(N4CCNCC4)cn3)nc2n(C2CCCC2)c1=O [Palbociclib] (first compound max 10 µM, 7x7, partner max 10 µM) | 0.0861 | 0.0317 | 0.0034 | 0.0306 | -0.0056 | -0.0134 | 0.0023 | -0.0388 | -0.0118 | 0.0023 | -0.0586 | -0.0357 | 0.0232 | -0.0561 | -0.0389 | 0.0261 | -0.0014 | -0.0253 | 0.0304 | 0.0281
NC1(C(=O)N[C@@H](CCO)c2ccc(Cl)cc2)CCN(c2ncnc3[nH]ccc23)CC1 [Capivasertib] + CC(C)n1c(=O)n(C)c2cnc3cc(F)c(-c4ccc(OCCCN5CCCCC5)nc4)cc3c21 [AZD1390] (first compound max 10 µM, 7x7, partner max 0.3 µM) | -0.0847 | -0.0605 | -0.0401 | -0.0281 | -0.0418 | -0.0434 | -0.0278 | -0.0399 | -0.0978 | -0.0767 | -0.0383 | -0.0242 | -0.0544 | -0.0564 | -0.0117 | -0.0406 | -0.0149 | -0.0708 | -0.0652 | -0.0774
NC1(C(=O)N[C@@H](CCO)c2ccc(Cl)cc2)CCN(c2ncnc3[nH]ccc23)CC1 [Capivasertib] + CCN(CCO)CCCOc1ccc2c(Nc3cc(CC(=O)Nc4cccc(F)c4)[nH]n3)ncnc2c1 [AZD2811] (first compound max 10 µM, 7x7, partner max 1 µM) | 0.0001 | -0.0551 | -0.0236 | 0.0146 | 0.06 | -0.015 | -0.0107 | -0.0314 | -0.0614 | -0.0423 | -0.0179 | -0.0334 | -0.0793 | -0.0318 | 0.0431 | -0.017 | -0.0114 | -0.0103 | 0.0344 | -0.0095
NC1(C(=O)N[C@@H](CCO)c2ccc(Cl)cc2)CCN(c2ncnc3[nH]ccc23)CC1 [Capivasertib] + COc1nnc2ccc(N3CCC(c4ccc(OCCN5CCN(C)C(=O)[C@H]5C)cc4)CC3)nn12 [AZD5153] (first compound max 10 µM, 7x7, partner max 1 µM) | 0.058 | 0.0237 | 0.0378 | 0.0494 | 0.0434 | 0.0193 | 0.041 | -0.0317 | -0.0315 | 0.0274 | 0.0335 | -0.005 | 0.0121 | 0.044 | 0.0423 | -0.0496 | -0.0101 | 0.0149 | 0.0908 | 0.0642
NC1(C(=O)N[C@@H](CCO)c2ccc(Cl)cc2)CCN(c2ncnc3[nH]ccc23)CC1 [Capivasertib] + C[C@@H]1COCCN1C2=NC(=NC(=C2)C3(CC3)[S@](=N)(=O)C)C4=C5C=CNC5=NC=C4 [AZD6738] (first compound max 10 µM, 7x7, partner max 10 µM) | 0.0092 | 0.0092 | -0.0194 | -0.0462 | -0.0804 | -0.0239 | -0.0463 | -0.0153 | -0.0333 | -0.0824 | -0.0161 | 0.0393 | -0.0364 | -0.0192 | -0.0057 | -0.0468 | -0.0856 | -0.0375 | -0.0557 | -0.0494
NC1(C(=O)N[C@@H](CCO)c2ccc(Cl)cc2)CCN(c2ncnc3[nH]ccc23)CC1 [Capivasertib] + Cn1cnc2c(F)c(Nc3ccc(Br)cc3Cl)c(C(=O)NOCCO)cc21 [Selumetinib] (first compound max 10 µM, 7x7, partner max 10 µM) | 0.0792 | -0.0598 | 0.0076 | 0.0225 | 0.0744 | -0.009 | 0.0007 | -0.0149 | 0.028 | 0.0357 | -0.133 | 0.0413 | 0.037 | 0.0035 | -0.019 | 0.0639 | 0.0248 | 0.0345 | 0.0241 | 0.0234
Cc1nc(Nc2ncc(C(=O)Nc3c(C)cccc3Cl)s2)cc(N2CCN(CCO)CC2)n1 [Dasatinib] + CC(=O)Nc1cccc(-n2c(=O)n(C3CC3)c(=O)c3c(Nc4ccc(I)cc4F)n(C)c(=O)c(C)c32)c1 [Trametinib] (first compound max 2 µM, 7x7, partner max 1 µM) | -0.0032 | -0.128 | -0.0711 | 0.0053 | -0.0871 | -0.0361 | -0.0361 | 0.0158 | 0.0075 | 0.0493 | -0.0529 | -0.0258 | -0.0024 | 0.0168 | 0.0688 | 0.025 | -0.0338 | -0.0708 | 0.0187 | -0.0414
